Laboratory results from PubChem BioAssay AID449750 (Broad Institute, 2010).
The source made the active and inactive calls. The rule behind the calls is not given here.

assay: non-covalent RecA intein splicing inhibitors, dose response, biochemical, cell-free, fluorescence, secondary screen (AID 449750)

SMILES	AC50
CC1=NN(c2ccc(Cl)cc2)C(=O)C1	3.71 µM
CC(C)(C)OC(=O)N1CC=C2C(C#N)=C(N)C(C#N)(C#N)C(c3cccs3)C2C1 (stereo unspecified)	> 12 µM (inactive)
COC(=O)c1ccc(-n2c(C)cc(C(=O)CCl)c2C)cc1	17.8 µM
O=C(/C=C/c1cccs1)Nc1scc(-c2ccccc2)c1C(=O)O	23.7 µM
COc1ccccc1CN1CCSCC1	> 38 µM (inactive)
CCN(CC)S(=O)(=O)c1ccc(N2CCN(S(=O)(=O)c3ccccc3C#N)CC2)nc1	> 38 µM (inactive)
Cc1ccc(C)c(NC(=O)CSc2n[nH]c(-c3ccccn3)n2)c1	> 38 µM (inactive)
COc1ccc(-c2cc(CNC(=O)CCl)on2)cc1	16.1 µM
CC1=NNC(=O)/C1=C\c1cn(-c2ccccc2)nc1-c1cccs1	9.64 µM
O=S(=O)(CCSc1nc2ccccc2s1)c1nc2ccccc2s1	27.3 µM
c1ccc(-c2nnc(-c3ccccn3)nc2NC2CCCCC2)cc1	7.98 µM
CC(C)(C)OC(=O)NCCc1nnc(S(=O)(=O)Cc2ccc(Cl)cc2Cl)o1	> 38 µM (inactive)
CCOC(=O)C1=C(C)NC2(O)c3ccccc3C(=O)C12O (stereo unspecified)	7.53 µM
O=[N+]([O-])c1ccc2nc(Cl)nc(-c3ccccc3)c2c1	> 38 µM (inactive)
O=C(CCl)Nc1cc(S(=O)(=O)N2CCCCCC2)ccc1Cl	4.92 µM
COC(=O)Cc1[nH]nc2c1C(c1c[nH]c3ccccc13)C(C#N)=C(N)O2 (stereo unspecified)	> 38 µM (inactive)
CC(=O)NC1N=C(C)N(c2ccccc2)C1=O (stereo unspecified)	33.7 µM
CC1=NN(c2ccc(C)cc2C)C(=O)C1C(c1cccc(O)c1)C1C(=O)N(c2ccc(C)cc2C)N=C1C (stereo unspecified)	3.51 µM
COc1ccc(N/C=C2\CCc3ccccc3C2=O)cc1	> 38 µM (inactive)
COc1ccc(-c2nnc(SC(=O)N3c4ccccc4Sc4ccccc43)o2)cc1	4.86 µM
O=S(=O)(N[C@H]1C[C@@H](NS(=O)(=O)OCC(Cl)(Cl)Cl)C2CCCCC21)OCC(Cl)(Cl)Cl (stereo partly specified)	3.37 µM
C[n+]1c2ccccc2nc2ccc(NCCO)cc21	10.1 µM

SMILES	AC50
COc1ccc(NC(=S)Nc2ccc3nsnc3c2)cc1	25.2 µM
Cc1onc(-c2ccccc2)c1-c1nc2ccccc2c(=O)o1	> 38 µM (inactive)
C/C(=C\c1ccco1)C1C(C#N)=C(N)Oc2n[nH]c(-c3ccccc3)c21 (stereo unspecified)	20.8 µM
Cc1ccc(CNC(=O)CCN2C(=O)[C@@H]3Cc4ccccc4CN3C2=O)cc1	> 38 µM (inactive)
CCOc1cc(/C=C2/C(=O)N(c3ccccc3)N=C2C)ccc1OC(=O)c1ccco1	3.17 µM
Cc1[nH]nc2c1C1(CCN(C(=O)OCc3ccccc3)CC1)C(C#N)=C(N)O2	> 38 µM (inactive)
Cc1ccc(S[C@@H](CCN2CC[C@H](C)CCC2=O)c2ccccc2)cc1	15.2 µM
CCC(CC)C(=O)NCc1ccc2c(c1)cc(C)n2C	> 38 µM (inactive)
O=C1CC(c2cccnc2)=NN1c1ccccc1	> 38 µM (inactive)
CCCCC(O)(CCCC)C(=O)NN(C(=O)CCl)c1ccccc1	6.32 µM
Cc1ccc(NC2=CC(=O)C(=O)c3ccccc32)cc1	6.16 µM
C=CCc1cccc(C=Nc2c[nH]c(=O)[nH]c2=O)c1O	> 38 µM (inactive)
O=C(c1ccco1)c1coc2c1cc(O)c1ccccc12	26.2 µM
Cc1[nH][nH]c(=O)c1C(c1ccc(-c2ccc(Cl)c(Cl)c2)o1)c1c(C)[nH][nH]c1=O	3.11 µM
Oc1ccc(N=Cc2ccc(O)c(O)c2)cc1	17.6 µM
O=C(CCl)N1CCN2C(=O)c3ccccc3C12c1ccc(Cl)cc1 (stereo unspecified)	7.81 µM
Cc1cccc(CS(=O)(=O)c2ncc(Cl)c(C(=O)Nc3nnc(C(C)C)s3)n2)c1	2.13 µM
O=C(NCc1ccc2c(c1)OCO2)c1nc(S(=O)(=O)Cc2ccccc2)ncc1Cl	> 38 µM (inactive)
CSc1nnc(NC(=O)c2nc(S(=O)(=O)Cc3cccc(C)c3)ncc2Cl)s1	> 38 µM (inactive)
COc1ccccc1NC1=C(Cl)C(=O)OC1OC(=O)c1ccco1 (stereo unspecified)	> 38 µM (inactive)
CCCCOc1ccc(C2C3CN(C(=O)OCC)CC=C3C(C#N)=C(N)C2(C#N)C#N)cc1OC (stereo unspecified)	> 38 µM (inactive)
O=C1C=C(N(CCO)Cc2ccccc2)c2ccccc2C1=O	4.49 µM

SMILES	AC50
O=C(N/N=C/c1ccc([N+](=O)[O-])o1)c1ccc(O)cc1	> 38 µM (inactive)
Cc1ccc([N+](=O)[O-])cc1S(=O)(=O)N(C(=O)c1ccncc1)c1ccc2oc3c(c2c1)CCCC3	> 38 µM (inactive)
Cc1ccc(NC2=C(Cl)C(=O)OC2OC(=O)c2ccco2)cc1C (stereo unspecified)	> 38 µM (inactive)
CCCc1nnc(NC(=O)c2nc(S(=O)(=O)Cc3cccc(C)c3)ncc2Cl)s1	> 38 µM (inactive)
CCCc1[nH]nc2c1C(c1ccoc1)C(C#N)=C(N)O2 (stereo unspecified)	> 38 µM (inactive)
Cc1ccc(-n2nc(C)c3c2OC(N)=C(C#N)C3c2ccoc2)cc1 (stereo unspecified)	6.18 µM
CC(C)c1nnc(NC(=O)c2nc(S(=O)(=O)Cc3ccccc3)ncc2Cl)s1	15 µM
CC(C)N(CC(=O)Nc1ccc(Cl)cc1C(F)(F)F)C(=O)CCl	12.9 µM
Cc1ccc(-n2nc(C)c3c2OC(N)=C(C#N)C3c2ccc(F)cc2)cc1 (stereo unspecified)	26.5 µM
O=Nc1c(O)c2ccccc2c2ccccc12	2.68 µM
Cc1[nH][nH]c(=O)c1C(c1ccccc1[N+](=O)[O-])C(C#N)C#N (stereo unspecified)	> 38 µM (inactive)
Cc1[nH]c2ccccc2c1C(C#N)(C#N)C1C(=O)c2ccccc2C1=O	2.58 µM
Cc1ccc(Sc2c(C)[nH]n(C(C)(C)C)c2=O)cc1	> 38 µM (inactive)
CC1=NN(c2ccccc2)C(=O)/C1=C\c1cc(C)n(-c2cccnc2)c1C	> 38 µM (inactive)
O=c1cc(-c2ccc(Br)cc2)[nH][nH]1	13.4 µM
CCS(=O)(=O)c1ncc(Cl)c(C(=O)Nc2ccc(S(=O)(=O)N(C)c3ccccc3)cc2)n1	1.66 µM
COc1ccc2nc(SCC(=O)NN)cc(C)c2c1	> 38 µM (inactive)
Cc1ccc(-n2nc(C)c3c2OC(N)=C(C#N)C3c2ccco2)cc1 (stereo unspecified)	12.9 µM
Cc1ccccc1CS(=O)(=O)c1ncc(Cl)c(C(=O)Nc2ccc(F)cc2)n1	> 38 µM (inactive)
CC(C)[C@H](NC(=O)Nc1ccc(Oc2ccccc2)cc1)C(=O)O	> 38 µM (inactive)
CCCc1ccc(/C=C2\C(=O)c3ccccc3C(O)=C2C(=O)OCC)cc1	8.63 µM
CN1c2ccccc2C(C)(C)C12C=Nc1c(ccc3ccccc13)O2 (stereo unspecified)	21.2 µM

SMILES	AC50
Cc1[nH]n(-c2ccccc2)c(=O)c1C(c1ccc([N+](=O)[O-])cc1)c1c(C)[nH]n(-c2ccccc2)c1=O	3.88 µM
CC1=NN(c2cccc(Cl)c2)C(=O)C1	34.3 µM
O=[N+]([O-])c1cccc2c([As](=O)(O)O)cccc12	> 38 µM (inactive)
O=C(N/N=C1\C/C(=N\NC(=O)c2ccncc2)c2ccccc21)c1ccncc1	17.3 µM
Cc1ccc(NC(=O)c2cnc(SCC(=O)NCC3CCCO3)n(C)c2=O)cc1 (stereo unspecified)	> 38 µM (inactive)
O=C(O)CC1OCC=C2CN3CCC45C6=CC(=O)C(=O)C([N+](=O)[O-])=C6NC4C1C2CC35 (stereo unspecified)	32.5 µM
COc1cc(/C=C2/C(=O)N(c3ccccc3)N=C2C)ccc1OS(=O)(=O)c1ccccc1	3.34 µM
O=C1c2ccccc2-c2c1nc1c([n+]2[O-])CCCC1	31.3 µM
Cc1noc(C)c1COC(=O)Cc1ccc(Br)cc1	> 38 µM (inactive)
COCc1[nH]nc2c1C(c1ccc(OC)c(OC)c1)C(C#N)=C(N)O2 (stereo unspecified)	> 38 µM (inactive)
CC/C(=C/c1sc2ccc(C)cc2[n+]1CCO)SC	> 38 µM (inactive)
CCCCCCCN(C(=O)CCl)c1ccccc1C	1.89 µM
O=C(CCl)N(c1ccccc1)c1c[nH]c2ccccc12	1.46 µM
COc1ccc(NC(=O)/C(Cl)=C(/Cl)S(=O)(=O)Cc2ccc(C)cc2)cn1	35.2 µM
CN(C(=O)C(Cl)Cl)c1ccc(OC(=O)c2ccco2)cc1	> 38 µM (inactive)
CC(=O)Nc1cccc(NC(=O)CSc2ncc(C(=O)Nc3ccccc3)c(=O)n2C)c1	> 38 µM (inactive)
Nc1c(O)cccc1C(=O)O	27.2 µM
CCOC(=O)N1CCC2(CC1)C(C#N)=C(N)Oc1n[nH]c(C)c12	> 38 µM (inactive)
CC(=O)Nc1ccc(S(=O)(=O)/N=C2\C(=O)c3ccccc3C([O-])=C2n2cc[n+](-c3ccccn3)c2)cc1	5.71 µM
COc1cc(/C=C/c2sc3ccccc3[n+]2CCCS(=O)(=O)[O-])ccc1O	> 38 µM (inactive)
CCOC(=O)C1CCN(c2nc(N)c3c(N)nc(SCC(=O)O)cc3c2C#N)CC1	> 12 µM (inactive)
O=C(O)/C=C\C(=O)Nc1ccc(Oc2ccc(Br)cc2)cc1	15.2 µM

SMILES	AC50
N#C/C(=C\c1cccc(O)c1)c1nc2ccccc2o1	> 38 µM (inactive)
COc1ccc(S(=O)(=O)Nc2ccc(O)c3ccccc23)cc1	0.296 µM
CC1=NN(c2ccccc2)C(=O)C1/C=C1\C(=O)NC(=O)N(c2ccc(C)c(C)c2)C1=O (stereo unspecified)	26.1 µM
CC(=O)C12CC(C)=C(C)CC1CC1C3CCC4=CC(=O)CCC4(C)C3CCC12C (stereo unspecified)	4.58 µM
CCOC(=O)c1ccc(CC2S/C(=C(\C#N)C(C)=O)NC2=O)cc1 (stereo unspecified)	> 38 µM (inactive)
COc1cccc(/C=C2\SC(=S)N(CCCC(=O)N(CCO)c3ccccc3)C2=O)c1	> 38 µM (inactive)
O=C(CCl)Nc1ccc(N=Nc2ccccc2)cc1	4.64 µM
Cc1ccc(S(=O)(=O)Oc2ccc(C(c3c(C)[nH][nH]c3=O)c3c(C)[nH][nH]c3=O)cc2)cc1	2.22 µM
O=[N+]([O-])c1cc(O)c2ncccc2c1	8.43 µM
O=C(CCCN1C(=O)/C(=C/c2cccs2)SC1=S)Nc1ccc(O)cc1	> 38 µM (inactive)
CC1CCCN(C2=C(Cl)C(=O)N(c3cccc(Cl)c3)C2=O)C1 (stereo unspecified)	> 38 µM (inactive)
O=C(NC1C(=O)NNC1c1ccc(Cl)cc1)c1ccc(F)cc1 (stereo unspecified)	> 38 µM (inactive)
COc1cccc(-c2[nH]nc3c2C(c2ccoc2)C(C#N)=C(N)O3)c1 (stereo unspecified)	28.8 µM
N#CCCn1[nH]c(-c2ccccc2)cc1=O	8.16 µM
COC(=O)C[C@]1(C(=O)OC)CN(C#N)N(c2ccc(Cl)cc2)C12c1ccccc1-c1ccccc12	14.3 µM
Cc1ccc(S(=O)(=O)Nc2ccc(O)c3ccccc23)c(C)c1	0.409 µM
Cc1cc(C(=O)c2ccc(C(C)(C)C)cc2)c(NC(=O)CCl)s1	9.8 µM
N#CC1=C(N)Oc2n[nH]c(-c3cccs3)c2C1c1cccs1 (stereo unspecified)	9.22 µM
